# Measurements taken from US20200138764A1, “METHODS AND DEVICES FOR ACTIVATING ADIPOSE TISSUE” (The Procter & Gamble Company, priority 2018, published 2020).
# Experiments:
# adipocyte = assay: In vivo browning study in lean mice: Fat % by image analysis of H&E stained tissue; design: species or system Mice (C57BJ/6); conditions: mice, SC injection, Formula III one side and mirabegron other side; high and middle dosage merged; H&E images
# Description: (§1) Mice (8-10 weeks old males C57BJ/6 strain) were obtained from a commercial vendor Charles River Laboratories. The animal study protocols were approved by the Institutional Animal Care and Use Committee, at the Procter & Gamble Company. Mice were acclimated to the facility for 14 days prior to initiating the study. From arrival, mice were housed in solid-bottom shoebox styled cages within room temperature of 22±2° C. with ad libitum access to water and regular rodent chow diet on a 12 h light/dark cycle. Mice were single housed and offered bedding and various enrichment options. The bedding and nesting material allowed the mice to thermoregulate to their desired level of comfort. Body weights were recorded at the beginning of the study, on each dosing day prior to dosing, and final weights were recorded at the end of the study. Overall food consumption, fecal output, and body appearance were monitored during cage side clinical observations but were not scientifically measured or tracked. During the dosing period, the animals were observed several times per day (for example, before and during injection, immediately to 30-min post injection, a few hours after injection, and end of work day).
# […] The injection was performed using a 25-27-gauge ½-⅝″ length needle via a subcutaneous (SC) injection near or into the inguinal fat pad region of the lower abdomen. Dosing was done twice a week injections over 3 weeks. Necropsy was done at week 4. […]
# Segments of adipocyte and inter-cellular regions in a stained image were identified by Python […] package. […] The threshold between adipocyte and inter-cellular regions in a converted image was detected by the Otsu filter function of the […]. The detected value was adjusted by multiplying 1.1.
# The ratio of adipocyte in an image was calculated from the pixel number of the segments—Adipocyte Pixel was divided by Total Pixel.
# The significance of the difference in Adipocyte Ratio between treatment and control groups was assessed by the Negative Binomial Generalized Linear Mixed-Effects Model using glmer.nb function of R lme4 package. […]
# fat tissue = assay: qPCR biomarker analysis of fat tissue, in vivo; design: species or system Mice (C57BJ/6); conditions: mouse fat tissue, SC injection twice a week over 3 weeks
# Description: as §1
# Three groups of animals were treated with mirabegron (i.e. positive control) (n=4), placebo (n=2) and Formula III (n=6) on the left side while the right side received placebo in all three groups. The injection was performed using a 25-27-gauge ½-⅝″ length needle via a subcutaneous (SC) injection near or into the inguinal fat pad region of the lower abdomen. Dosing was done twice a week injections over 3 weeks. Necropsy was done at week 4. Test materials were administered at room temperature and in a neutral pH range. Three days after last dosing animals were euthanized with CO2 inhalation, inguinal fat pads were harvested, and tissues were processed for histology and biomarker analysis.
# The qPCR biomarker analysis was conducted from flash frozen fat tissue from mouse study described above. First, RNA was manually extracted with RNAdvance Tissue kit (Agencourt). RNA was extracted from flash frozen fat tissue according to manufactuer's directions. For example, 5 mm steel beads were placed in the freezer for approximately 15-20 minutes. Next, Qiagen Buffer RLT was cooled to 4° C. for 20 minutes and placed in a 96 well 1.5 mL tube rack for sample transfer. Isopropanol was added to Agencourt wash buffer. 100 mL aliquots of 70% ethanol in water were prepared. The RNA Tissue beads were allowed to warm to 22° C. (˜30 minutes), and then the beads were shaken vigorously and intermittently for at least 15-20 minutes. 1 stainless steel bead was added to a 2 mL round bottom tube stored on dry ice. The tissue sample was then transferred to the 2 mL round bottom tube.
# The tube rack was placed on wet ice. Then, the tubes were transferred from dry ice to the rack in wet ice and 350 μL of cold buffer RLT were added to the tubes. The beads were beaten at 30 Hz for 2 minutes. After bead beating, samples were centrifuged for 2 minutes. The supernatant was transferred into 96 well deep well isolation plate.
# 80 μL of RNATissue beads were combined with 320 μL of isopropanol to create a Bind Buffer. This solution was prepared fresh for each isolation with any unused solution discarded.
# 400 μL of Bind Buffer was added to the to RLT mixture and slowly mixed. The solution was incubated at room temperature for 10 minutes. Special care was taken to avoid the formation of bubbles while tip mixing.
# The mixture was placed on a magnet (96 well plate—Agencourt SPRIPlate) for 6-10 minutes. After the solution became clear, the supernatant was removed from each tube while the tubes remained on the magnet and the solution was discarded.
# The tubes were removed from the magnet and the pellets were washed with 800 μL of the Isopropanol Wash Buffer ten times. […]
compound,measurement,setting,value
"Nc1nc(CC(=O)Nc2ccc(CCNC[C@H](O)c3ccccc3)cc2)cs1 [Mirabegron, mirabegron]",Average Fat % (Adipocyte Pixel / Total Pixel),adipocyte,94.43%
same,Average Fold vs Placebo: AdipoQ,fat tissue,13.7
same,Average Fold vs Placebo: Adrb3,fat tissue,16.3
same,Average Fold vs Placebo: Cidea,fat tissue,39.7
same,Average Fold vs Placebo: Cox7a1,fat tissue,27.8
same,Average Fold vs Placebo: Cox8b,fat tissue,38.6
same,Average Fold vs Placebo: Dio2,fat tissue,8.3
same,Average Fold vs Placebo: Elovl3,fat tissue,19.1
same,Average Fold vs Placebo: IL6,fat tissue,3.3
same,Average Fold vs Placebo: Ppargc1,fat tissue,12.0
same,Average Fold vs Placebo: Prdm16,fat tissue,5.0
same,Average Fold vs Placebo: Tfap2a,fat tissue,15.2
same,Average Fold vs Placebo: UCP1,fat tissue,170.3
